Series [1] addresses T1, 5-lipoxygenase (5-LO) (Oryctolagus cuniculus, UniProt G1SNX0).
T1 construct: Polymorphonuclear leukocytes (PMNLs) were purified from rabbits by glycogen-intraperitoneal elicited intraperitoneal recruitment; endogenous in cells; host or cells: rabbit peritoneal polymorphonuclear leukocytes (PMNL), glycogen-elicited
T1 sequence (G1SNX0 1-674): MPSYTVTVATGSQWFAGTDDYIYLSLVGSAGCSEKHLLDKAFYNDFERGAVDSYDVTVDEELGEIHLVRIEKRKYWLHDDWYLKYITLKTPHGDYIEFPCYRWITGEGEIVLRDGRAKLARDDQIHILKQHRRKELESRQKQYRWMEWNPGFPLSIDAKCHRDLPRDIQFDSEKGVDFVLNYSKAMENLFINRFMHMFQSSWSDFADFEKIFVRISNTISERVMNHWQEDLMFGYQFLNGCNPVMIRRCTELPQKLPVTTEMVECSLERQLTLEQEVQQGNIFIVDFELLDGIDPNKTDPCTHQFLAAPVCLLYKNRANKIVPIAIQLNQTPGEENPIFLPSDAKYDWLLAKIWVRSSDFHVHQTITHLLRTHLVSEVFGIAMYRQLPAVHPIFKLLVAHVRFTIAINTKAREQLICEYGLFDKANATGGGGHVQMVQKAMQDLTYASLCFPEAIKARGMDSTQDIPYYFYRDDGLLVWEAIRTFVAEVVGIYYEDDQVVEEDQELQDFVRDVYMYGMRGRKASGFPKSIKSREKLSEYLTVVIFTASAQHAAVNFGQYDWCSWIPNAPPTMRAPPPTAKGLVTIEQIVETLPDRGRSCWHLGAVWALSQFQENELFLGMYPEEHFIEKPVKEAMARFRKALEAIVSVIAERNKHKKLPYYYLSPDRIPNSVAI
Put plainly: Radioisotopic assay of 5-LO activity (LTB4 formation from 14C-arachidonic acid) in rabbit peritoneal PMNL stimulated with A-23187. It is filed as cell-based. From the text: The 5-LO enzyme, which is found primarily in cells of myeloid origin such as polymorphonuclear leukocytes (“PMNL”), eosinophils, and macrophages, catalyzes the first step of the biochemical pathway in which arachadonic acid (“AA”) is,converted into LTA4. […] To test the inhibition of the quinone derivatives on the activity of 5-LO rabbit polymorphonuclear leucocytes (PMNLs) were used.
Polymorphonuclear leukocytes (PMNLs) were purified from rabbits by glycogen-intraperitoneal elicited intraperitoneal recruitment, as descrited in T. Yatabe et al., “Studies on 5-lipoxygenase inhibitors: I. Synthesis and 5-lipoxygenase inhibitory activity of novel hydroxanic acid derivatives,” chem. Pharm. Bull., vol. 46, pp. 966-972 (1998). An intraperitoneal injection of 300 mL of 0.1% (w/v) glycogen in sterile saline was administered 6 h before the rabbits were sacrificed by an intravascular injection of Nembutal. Peritoneal exudates were collected in 5 μM EGTA, and residual red cells were removed by lysis in ammonium chloride. These cell preparations were obtained with greater than 96% purity, as assessed by Wright-Giemsa staining and greater than 95% viability as assessed by Trypan blue exclusion.
PMNL cells in suspension were pre-incubated for 20 min at room temperature with ^14C-labeled arachadonic acid (AA) and diluted to 3000 cells μL^−1. Thereafter, the calcium ionophore A-23187 (1 μg/mL) was added to stimulate LTB4 production, and the cells further incubated for 15 min under stirring at 37° C. After incubation, the aqueous samples were successively shaken with a mixture of chloroform/methanol/formic acid (12:12:1) for 30 sec and then with chloroform for 10 sec. Organic phases containing LTB4, 5-HPETE (5-hydroperoxyeicosatetraenoic acid), diHPETEs (dihydroperoxyeicosatetraenoic acids), and prostaglandins (PGs) were pooled, evaporated to dryness under nitrogen and dissolved into a small amount of chloroform-MeOH (1:1). Separation of the 5-LO metabolites was performed by thin layer chromatography (TLC) on silica gel G plates developed in diethyl ether-hexane-acetic acid (60:40:1, v/v/v).
Bands containing 5-lipoxygenase (5-LO) metabolites were scraped from the TLC plates, and ^14C levels were quantitatively measured by liquid scintillation. 5-LO activity was an obtained from the amount of ^14C-arachidonic acid converted into LTB4 after the prelabeled PMNL cells were stimulated to produce LTB4 by the calcium ionophore as described above. IC50 was calculated as the concentration of the 5-LO antagonist that produced 50% inhibition of the metabolite conversion.
[…] IC50 values, calculated as theconcentration of test compound required to cause 50% inhibition of LTB4 formation, were also determined for some representative examples. […] These compounds, in general, correspond to compounds bearing the more lipophilic quinone fragments. […] See S. Ohkawa et al., “Dual Inhibition of Thromboxane A2 Synthetase and 5-Lipoxygenase with Scavenging Activity of Active Oxygen Species. Synthesis of a Novel Series of (3-Pyridylmethyl)benzoquinone Derivatives,” J. Med. Chem., vol. 34, pp. 267-276 (1991).

In series [2] the test system is arachidonic acid-induced ear inflammation in mice. The series can be described thus: Arachidonic acid-induced ear inflammation in mice (AAE test). It is filed as in vivo. As to conditions: Mus musculus, mice, topical, read-out: % inhibition of AA-induced ear inflammation.
Series [3] addresses COX-1 (Homo sapiens, UniProt P23219). Put plainly: In vitro inhibition of COX-1 activity. As to conditions: read-out: COX-1 percent inhibition.
Source text: (§1) Percent inhibition mean values ±SD from at least three individual determinations are shown.
Series [4] concerns the target T2, COX-2 (Homo sapiens, UniProt P35354).
T2 sequence (P35354 18-604): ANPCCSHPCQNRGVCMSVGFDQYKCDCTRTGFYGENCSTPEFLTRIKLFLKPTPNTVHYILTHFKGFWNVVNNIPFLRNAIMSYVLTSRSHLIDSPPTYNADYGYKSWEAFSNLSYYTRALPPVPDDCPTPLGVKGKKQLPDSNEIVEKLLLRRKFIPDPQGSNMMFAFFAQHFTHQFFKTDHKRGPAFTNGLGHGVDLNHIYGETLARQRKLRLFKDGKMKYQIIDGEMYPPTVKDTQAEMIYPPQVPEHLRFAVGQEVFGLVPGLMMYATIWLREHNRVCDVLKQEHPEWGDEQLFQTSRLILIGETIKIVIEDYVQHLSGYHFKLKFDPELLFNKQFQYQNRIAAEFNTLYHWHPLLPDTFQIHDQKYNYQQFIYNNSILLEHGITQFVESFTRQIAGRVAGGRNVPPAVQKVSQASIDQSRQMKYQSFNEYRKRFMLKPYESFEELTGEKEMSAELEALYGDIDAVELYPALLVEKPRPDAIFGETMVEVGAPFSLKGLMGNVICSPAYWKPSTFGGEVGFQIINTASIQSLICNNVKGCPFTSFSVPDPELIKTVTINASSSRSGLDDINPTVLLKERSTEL
Put plainly: In vitro inhibition of COX-2 activity. As to conditions: read-out: COX-2 percent inhibition.
Source text: as §1

Series [5] deals with T3, 5-LO (Rattus norvegicus, UniProt P12527).
T3 sequence (P12527 1-673): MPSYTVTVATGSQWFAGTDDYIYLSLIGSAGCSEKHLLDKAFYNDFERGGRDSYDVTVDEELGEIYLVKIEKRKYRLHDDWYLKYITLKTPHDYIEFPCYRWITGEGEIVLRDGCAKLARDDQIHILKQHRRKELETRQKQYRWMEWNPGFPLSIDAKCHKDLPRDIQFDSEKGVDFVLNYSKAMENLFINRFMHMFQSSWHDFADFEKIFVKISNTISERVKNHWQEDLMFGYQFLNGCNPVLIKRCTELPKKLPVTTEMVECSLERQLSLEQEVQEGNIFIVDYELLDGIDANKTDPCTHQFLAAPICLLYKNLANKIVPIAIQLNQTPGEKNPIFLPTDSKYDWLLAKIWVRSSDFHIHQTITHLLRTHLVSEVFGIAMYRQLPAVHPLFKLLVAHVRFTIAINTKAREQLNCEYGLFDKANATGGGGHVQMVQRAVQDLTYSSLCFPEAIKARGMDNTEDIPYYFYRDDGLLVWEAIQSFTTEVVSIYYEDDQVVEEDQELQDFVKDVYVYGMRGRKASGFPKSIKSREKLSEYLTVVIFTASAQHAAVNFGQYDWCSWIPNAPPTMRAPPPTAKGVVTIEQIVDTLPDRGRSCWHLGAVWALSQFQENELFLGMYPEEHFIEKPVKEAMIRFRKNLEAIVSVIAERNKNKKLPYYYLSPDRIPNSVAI
The series can be described thus: 5-LO inhibition by radioimmunoassay (RIA) in rat peritoneal PMNL. As to conditions: inhibitors at 'AM final concentration' [sic], mean ± SD.
Source text: as §1

For orientation: inhibition means the relative decrease from the control value, in per cent. The term melting point denotes the temperature, or range, at which the solid turns liquid.

COX-1, sequence (P23219 24-599): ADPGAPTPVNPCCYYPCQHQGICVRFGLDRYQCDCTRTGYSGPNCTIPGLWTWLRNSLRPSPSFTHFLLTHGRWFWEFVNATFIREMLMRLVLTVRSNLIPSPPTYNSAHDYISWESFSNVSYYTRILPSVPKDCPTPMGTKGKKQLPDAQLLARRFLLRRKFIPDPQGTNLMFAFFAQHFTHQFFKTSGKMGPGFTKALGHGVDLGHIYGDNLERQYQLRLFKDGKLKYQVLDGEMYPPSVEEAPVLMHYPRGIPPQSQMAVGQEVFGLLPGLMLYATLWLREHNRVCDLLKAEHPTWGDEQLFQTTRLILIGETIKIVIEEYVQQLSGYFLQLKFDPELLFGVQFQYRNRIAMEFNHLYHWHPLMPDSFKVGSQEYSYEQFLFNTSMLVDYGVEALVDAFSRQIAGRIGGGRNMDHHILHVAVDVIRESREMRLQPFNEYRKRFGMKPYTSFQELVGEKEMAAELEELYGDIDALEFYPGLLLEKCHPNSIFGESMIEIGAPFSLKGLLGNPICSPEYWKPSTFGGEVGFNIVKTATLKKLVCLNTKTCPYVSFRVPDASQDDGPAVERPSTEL

Take `CC1=C(C)C(=O)C(Nc2nc(C)cc(C)n2)=CC1=O` [Compound 4s, 2,3-Dirnethyl-5-(4,6-dimethylpyfimidin-2-ylamino)-[1,4]benzoquinone]: the melting point is 188 to 189 °C. In addition, the inhibition at 1 µM in series [1] (at 1 μM, rabbit peritoneal neutrophils (PMNL), mean ± s.d. of three experiments in duplicate, read-out: % Inhibition (percent inhibition of LTB4 formation)) turned out to be 96 ± 1.7%. Besides, the IC50 in series [1] (measured on PMNL, read-out: IC50 (concentration causing 50% inhibition of LTB4 formation), in parentheses (converted)) is 175 nM. For the same compound, the “in vitro 5-LO activity in words” value in series [1] (peritoneal PMNL) was “potent in vitro 5-LO inhibitors”. In series [2] (50 μg/ear), the change in vivo at 50 µg/ear was -17.3 ± 1.1%. Also, in series [2] (100 μg/ear), the change in vivo at 100 µg/ear was -33.9 ± 3.9%. In series [3], the inhibition at 500 µM came out at 8.4 ± 11.6%. The inhibition at 500 µM in series [4] came out at 3.3 ± 12.9%. In addition, in series [5], the 5-LO percent inhibition came out at 89.6 ± 2.3%.

For the origin of these results see patent US6653311B1, “5-lipoxygenase inhibitors: (2-azinylamino) quinone derivatives” (Board of Supervisors of Louisiana State University, priority 2002, dated 2003).
